Experimental data published in patent US8618169B2, “Derivatives of N-phenylanthranilic acid and 2-benzimidazolone as potassium channel and/or neuron activity modulators” (Ramot at Tel-Aviv University Ltd., priority 2002, dated 2013).
Several values for one entry are separate records, joined by “and”; a condition that tells them apart may be missing. Identical values can stand only once.

Experiments:
[1] = molecular target: T1, KCNQ2/3 channels (Homo sapiens, UniProt O43525+O43526); experiment: KCNQ2/3 current in transfected CHO cells, whole-cell patch-clamp; type: cell-based
T1 construct: expressed in transfected cells; host or cells: CHO cells

[2] = system: rat cortical neurons; experiment: Evoked and spontaneous action potential activity of cultured rat cortical neurons, current-clamp; type: cell-based
[3] = molecular target: T2, M-current (Rattus norvegicus, UniProt O88943+O88944); experiment: Native M-current of cultured rat cortical neurons, voltage-clamp; type: cell-based
T2 construct: the native M-current from pyramidal-like neurons was recorded; endogenous in cells; host or cells: primary cortical neurons from Sprague Dawley rat embryos (E18)

[4] = molecular target: T3, homomeric KCNQ3 (Homo sapiens, UniProt O43525); experiment: Homomeric KCNQ3 channels expressed in CHO cells, patch-clamp; type: cell-based; settings: 50 μM
T3 construct: expressed in transfected cells; host or cells: CHO cells

[5] = system: electroshock-induced seizures; experiment: Maximal electroshock seizure (MES) test in ICR mice; type: in vivo
Procedure: All animals were treated in accordance with the Guide for the Care and Use of Laboratory Animals as adopted and promulgated by the U.S. National Institutes of Health. The procedures followed for experimentation and maintenance of the animals were approved by the animal research ethics committee of Tel Aviv University and in accordance with the Guide for the Care and Use of Laboratory Animals (1996. National Academy of Sciences, Washington D.C). […] electroshock were induced in adult mice by means of two transcorneal electrodes delivering an alternative current of 50 mA at 60 Hz for 0.2 sec using rodent shocker (Hugo Sachs Electronik, type 221). […] The tested compounds were dissolved in 0.9% saline were administered intraperitoneally either 30 minutes or 2 hours before the electroshock was performed. Animals failing to show tonic hind limb extension were scored as protected and were expressed in percentage.
Five groups of 10 ICR mice each received intraperitoneally saline (control) or meclofenamic acid (Compound 1) at 25 mg/kg, 50 mg/kg, 100 mg/kg and 150 mg/kg and were subjected 30 minutes later to an electric shock (50 mA, 0.2 second duration, 60 Hz).
In view of the strong depressing activity of Compound 6 on cortical neurons, the anticonvulsant activity in mice subjected to seizures produced by electroshock was examined, using the MES test described above. Compound 6 dissolved in saline was injected intraperitoneally (in a volume of 10 ml/kg) at doses ranging from 6 mg/kg to 20 mg/kg to ICR adult mice and its anticonvulsant activity was compared with saline. Twenty minutes after drug administration, seizures were produced by electroshock (50 mA, 0.2 second duration, 60 Hz).

[6] = molecular target: KCNQ2/Q3 (Homo sapiens, UniProt O43525+O43526); experiment: KCNQ2/Q3 current in Xenopus oocytes, two-electrode voltage-clamp; type: cell-based; design: expressed in transfected cells; host or cells: Xenopus oocytes (cRNA microinjection); settings: for increase of KCNQ2/Q3 currents: at −40 mV
Procedure: Current measurements in Xenopus oocytes were performed as described in the art [Peretz et al. J. Physiol 545:751-766 (2002)]. Briefly, two-electrode voltage-clamp measurements were performed 3-5 days following cRNA microinjection into oocytes. Oocytes were bathed in a modified ND96 solution containing (in mM): 96 NaCl, 2 KCl, 1 MgCl2, 0.1 CaCl2 and 5 HEPES titrated to pH=7.4 with NaOH. Whole-cell currents were recorded at room temperature (20° C.-22° C.) using a GeneClamp 500 amplifier (Axon Instruments, Foster City, Calif., USA). Glass microelectrodes (A-M Systems, Inc., Carlsborg, Wis., USA) were filled with 3M KCl and had tip resistances of 0.5-1.5 MΩ. Stimulation of the preparation, data acquisition and analyses were performed using the pCLAMP 6.02 software (Axon Instruments, Foster City, Calif., USA) and a 586 personal computer Pentium 4 interfaced with a Digidata 1200 interface (Axon Instruments, Foster City, Calif., USA). Current signals were filtered at 0.5 kHz and digitized at 2 kHz.
Data analysis was performed using the Clampfit program (pClamp 8.1, Axon Instruments, Foster City, Calif., USA), Microsoft Excel 98 (Microsoft Corp., Redmond, Wash., USA), Axograph 4.6 (Axon Instruments, Foster City, Calif., USA) and Prism 2.0 (GraphPad, San Diego, Calif., USA). Leak subtraction was performed off-line, using the Clampfit program of the pClamp 8.1 software. To analyze the KCNQ2/3 channel deactivation, a single exponential fit was applied to the tail currents. Chord conductance (G) was calculated by using the equation: G=I/(V−Vrev) where I corresponds to the current amplitude measured at the end of the pulse and Vrev, the calculated reversal potential assumed to be −90 mV in CHO cells and −98 mV in Xenopus oocytes. G was estimated at various test voltages V and then, normalized to a maximal conductance value, Gmax, calculated at +40 mV. Activation curves were fitted by a Boltzmann distribution: G/Gmax=1/{1+exp[(V50−V)/s]} where V50 is the voltage at which the current is half-activated and s is the slope factor. All data were expressed as mean±SEM. Statistically significant differences were assessed by Student's t-test.
Data are expressed as mean±SEM of 5-8 separate experiments.

[7] = system: CA1 pyramidal neurons; experiment: Bursting and spike ADP of CA1 pyramidal neurons in rat hippocampal slices, current-clamp; type: cell-based
Procedure: Using selective blockers and openers, it was recently shown that M-channels critically modulate the firing pattern of pyramidal hippocampal neurons by controlling the strength, duration and escalation into bursts of spike after depolarization (Yue and Yaari J. Neurosci., 24(19):4614-24, 2004).
To evaluate the effect of Compound 6 on the spike ADP, a brief depolarizing current pulse was injected to the neurons to elicit a solitary spike.

[8] = 100 μM, prepulse −20 mV, tail −60 mV

## Cc1ccc(Cl)c(Nc2ccccc2C(=O)O)c1Cl [Compound 1, Meclofenamic acid]
[1]; 100 μM, CHO cells
  V50 of KCNQ2/3 current activation with compound: −42.34±2.08 mV
  leftward shift in the voltage-dependence of KCNQ2/3 current activation: 22.7 mV
  slope parameter s of the Boltzmann fitting curve: −10.50±0.93 mV/e fold
[1]; [8]
  increase of the time constant for deactivation: about 2 fold
  time constant for deactivation τdeact with compound: 167.5 ± 11.6 ms
[1]; CHO cells
  effect on KCNQ2/3 activation kinetics: did not affect
[1]; CHO cells, control −50 mV
  voltage threshold of KCNQ2/3 current activation upon exposure: about −60 mV
[1]; at −30 mV, CHO cells
  increase of KCNQ2/3 current amplitude: > 2.5 fold
[1]; at −40 mV, CHO cells
  increase of KCNQ2/3 current amplitude: > 5 fold
[1]; at −50 mV, CHO cells
  increase of KCNQ2/3 current amplitude: more than 10 fold
[1]; potentials around −60/−50 mV
  increase in KCNQ2/3 current amplitude: more than 10 fold
[1]; train protocol, cells stepped to −20 mV
  increase of the current amplitude: up to 72%
[1]; train protocol, stepped to −20 mV, control 844±130 pA
  KCNQ2/3 current amplitude with compound: 1451±164 pA
[2]; 10 μM
  effect on spontaneous spiking activity: completely but reversibly inhibited
[2]; 10 μM, 100 pA depolarizing current for 800 mseconds, control 20±1
  number of evoked action potentials with compound: 1±1
[2]; 5-20 μM
  effect on evoked potentials: reversibly inhibited
[3]; 10 μM, step from −80 mV to −40 mV
  enhancement of the linopirdine-sensitive outward current: 465±134 percents of control
[4]; CHO cells
  leftward shift of the activation curve of KCNQ3 channels: −15 mV
[4]; stepped from −85 mV to −40 mV
  increase of KCNQ3 current amplitude: 120±4%
[4]; control 319.6±40.8 msec
  τdeact of KCNQ3 with compound: 317.2 ± 30.2 ms
[4]; control −39.0±3.5 mV
  V50 of KCNQ3 activation with compound: −54.0±2.0 mV
[5]; 50 mg/kg i.p., 30 minutes before electroshock
  % Protection: 17% and 17 (6) %
[5]; 100 mg/kg i.p., 30 minutes before electroshock
  % Protection: 75 (5) %
[5]; 100 mg/kg i.p., 2 hours before electroshock
  % Protection: 25 (4) %
[5]; 150 mg/kg intraperitoneally
  adverse effect in mice: sedation
[5]; 200 mg/kg i.p., 30 minutes before electroshock
  % Protection: toxic
[5]; 200 mg/kg i.p., 2 hours before electroshock
  % Protection: toxic
[5]; Example 9: 50 mg/kg intraperitoneally, 30 minutes before shock
  mice protected from electroshock: 50%
[5]; Example 9: 100 mg/kg intraperitoneally, 30 minutes before shock
  protection from electroshock seizures: fully prevented seizures
[5]; mouse, in vivo
  toxic effects at high doses: pro-convulsive toxic effects and hyperactivity
[6]; 25 μM, Xenopus oocytes
  leftward shift in the voltage-dependence of KCNQ2/Q3 current activation: −15.9 mV
[6]; 25 μM, Xenopus oocytes, control −28.6±2.9 mV
  V50 of KCNQ2/Q3 current activation with compound: −44.5±3.1 mV
[6]; 25 μM
  increase of KCNQ2/Q3 currents: 1.75 fold
[6]; 25 μM, oocyte membrane stepped from −80 mV to −40 mV
  increase in KCNQ2/Q3 current amplitude: 53±8%
[6]; increasing concentrations, from −56±2 mV
  oocyte resting membrane potential after compound: −72±3 mV
[6]; increasing concentrations, read-out: EC50 of hyperpolarization of the oocyte resting membrane potential
  EC50: 11.7 ± 5.2 µM

## O=C(Cc1ccccc1Nc1c(Cl)cccc1Cl)NCCOCCO [Compound 6]
[1]; 25 μM, CHO cells
  leftward shift in the voltage-dependence of KCNQ2/3 activation: about 13 mV
[1]; 25 μM, CHO cells, control −30.9±4.1 mV
  V50 of KCNQ2/3 activation with compound: −43.45±2.3 mV
[1]; 25 μM, train protocol, stepped to −50 mV
  increase of the current amplitude: up to 220%
[1]; CHO cells
  effect on deactivation kinetics of KCNQ2/3 channels: slowed down
[1]; at −50 mV, CHO cells, read-out: EC50 of concentration-dependent current increase
  EC50: 7 ± 1 µM
[2]
  effect on evoked and spontaneous cortical neuron activity: depress
[2]; 5 μM-20 μM, within less than 2 minutes
  effect on spontaneous action potentials: profound depression of spontaneous action potentials
[2]; 10 μM
  effect on number of evoked action potentials: reduced drastically and reversibly
[3]; cortical neurons, from −50 mV to −70 mV
  negative shift in the threshold of M-current activation: approximately 20 mV
[5]; Mus musculus, intraperitoneal 6-20 mg/kg, twenty minutes before electroshock, read-out: ED50 of protective effect against seizures
  ED50: 8.7 mg/kg
[7]; 25 μM, long suprathreshold depolarizing current pulses
  effect on burst spiking: suppression of the burst
[7]; solitary spike, control 193.8±49.7 mV msec
  ADP size with compound: 117.1±40.6 mV msec
[6]; 25 μM
  increase of KCNQ2/Q3 currents: 1.95 fold
